25 compounds from patent US10092570B2 (Incyte Corporation, priority 2011, dated 2018) can be followed below.

Broadly, the IC50 is the concentration that gives 50% inhibition.

Sequence of PI3Kδ (p110δ/p85α) (O00329 whole entry): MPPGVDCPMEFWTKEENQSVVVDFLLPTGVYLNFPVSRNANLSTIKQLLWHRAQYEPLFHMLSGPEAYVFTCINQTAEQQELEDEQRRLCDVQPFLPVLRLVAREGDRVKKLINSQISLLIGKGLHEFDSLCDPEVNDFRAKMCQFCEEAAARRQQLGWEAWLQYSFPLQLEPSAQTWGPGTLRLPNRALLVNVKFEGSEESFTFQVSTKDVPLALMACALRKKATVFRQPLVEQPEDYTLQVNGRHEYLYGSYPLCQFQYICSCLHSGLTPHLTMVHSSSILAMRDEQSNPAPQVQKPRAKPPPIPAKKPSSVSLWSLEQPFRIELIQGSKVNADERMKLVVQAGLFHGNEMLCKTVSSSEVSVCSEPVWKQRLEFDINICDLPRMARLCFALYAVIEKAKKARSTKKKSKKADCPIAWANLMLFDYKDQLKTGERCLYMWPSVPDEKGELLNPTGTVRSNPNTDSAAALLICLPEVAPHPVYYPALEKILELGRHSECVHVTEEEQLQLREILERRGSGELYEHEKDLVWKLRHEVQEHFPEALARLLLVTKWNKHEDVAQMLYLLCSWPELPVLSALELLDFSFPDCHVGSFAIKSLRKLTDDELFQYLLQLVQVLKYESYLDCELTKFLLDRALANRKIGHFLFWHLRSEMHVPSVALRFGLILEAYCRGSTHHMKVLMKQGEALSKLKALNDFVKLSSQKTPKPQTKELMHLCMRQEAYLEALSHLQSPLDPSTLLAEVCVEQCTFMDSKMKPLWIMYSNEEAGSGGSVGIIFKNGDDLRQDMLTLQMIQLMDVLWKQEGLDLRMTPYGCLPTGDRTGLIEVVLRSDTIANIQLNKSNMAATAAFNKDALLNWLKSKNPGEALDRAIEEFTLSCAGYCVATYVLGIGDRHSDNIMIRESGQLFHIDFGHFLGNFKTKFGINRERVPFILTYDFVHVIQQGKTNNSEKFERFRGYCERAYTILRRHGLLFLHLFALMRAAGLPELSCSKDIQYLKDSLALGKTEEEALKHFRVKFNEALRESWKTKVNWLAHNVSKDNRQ
Sequence of PI3Kδ (p110δ/p85α) (P27986 whole entry partner): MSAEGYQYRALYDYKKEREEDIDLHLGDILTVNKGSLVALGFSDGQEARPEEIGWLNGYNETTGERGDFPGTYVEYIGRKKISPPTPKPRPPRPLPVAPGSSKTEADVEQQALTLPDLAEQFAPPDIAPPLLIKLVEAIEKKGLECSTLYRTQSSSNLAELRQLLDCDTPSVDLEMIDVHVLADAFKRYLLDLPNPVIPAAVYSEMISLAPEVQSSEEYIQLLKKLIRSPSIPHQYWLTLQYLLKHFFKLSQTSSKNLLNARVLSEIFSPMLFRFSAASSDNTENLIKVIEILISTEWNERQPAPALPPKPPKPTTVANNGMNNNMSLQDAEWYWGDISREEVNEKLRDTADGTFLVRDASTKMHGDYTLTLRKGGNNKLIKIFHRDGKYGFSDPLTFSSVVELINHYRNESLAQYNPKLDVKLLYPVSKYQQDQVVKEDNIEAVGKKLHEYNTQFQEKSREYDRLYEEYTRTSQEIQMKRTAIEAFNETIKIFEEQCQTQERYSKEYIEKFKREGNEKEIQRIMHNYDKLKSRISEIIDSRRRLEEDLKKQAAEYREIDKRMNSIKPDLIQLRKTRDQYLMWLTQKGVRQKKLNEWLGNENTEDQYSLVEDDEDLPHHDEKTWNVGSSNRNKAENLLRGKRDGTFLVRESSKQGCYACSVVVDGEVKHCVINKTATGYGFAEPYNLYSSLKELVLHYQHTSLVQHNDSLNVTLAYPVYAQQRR

This assay addresses PI3Kδ (p110δ/p85α) (Homo sapiens (Human), UniProt O00329). Description: Example A3: PI3Kδ scintillation proximity assay. It counts as biochemical. The following applies: scintillation proximity assay, 20 μM ATP, 4 nM PI3Kδ; read-out: PI3Kδ SPA IC50. The protocol:
[γ-^33P]ATP (10 mCi/mL) was purchased from Perkin-Elmer (Waltham, Mass.). […] PI3Kδ (p110δ/p85α) was purchased from Millipore (Bedford, Mass.). ATP, MgCl2, DTT, EDTA, MOPS and CHAPS were purchased from Sigma-Aldrich (St. Louis, Mo.). Wheat Germ Agglutinin (WGA) YSi SPA Scintillation Beads was purchased from GE healthcare life sciences (Piscataway, N.J.).
The kinase reaction was conducted in polystyrene 384-well matrix white plate from Thermo Fisher Scientific in a final volume of 25 μL. Inhibitors were first diluted serially in DMSO and added to the plate wells before the addition of other reaction components. The final concentration of DMSO in the assay was 0.5%. The PI3K assays were carried out at room temperature in 20 mM MOPS, pH 6.7, 10 mM MgCl2, 5 mM DTT and CHAPS 0.03%. Reactions were initiated by the addition of ATP, the final reaction mixture consisted of 20 μM PIP2, 20 μM ATP, 0.2 μCi [γ-^33P] ATP, 4 nM PI3Kδ. […] 25 mM EDTA, 400 μM ATP. The final concentration of SPA beads was 1.0 mg/mL. After the plate sealing, plates were shaken overnight at room temperature and centrifuged at 1800 rpm for 10 minutes, the radioactivity of the product was determined by scintillation counting on Topcount (Perkin-Elmer). IC50 determination was performed by fitting the curve of percent control activity versus the log of the inhibitor concentration using the GraphPad Prism 3.0 software.
As to `CNC(=O)[C@@H](C)N1CC(c2c(C)c(C#N)cc(C(C)n3nc(C(F)F)c4c(N)ncnc43)c2OC)C1` (stereo partly drawn) [Example 135, (2R)-2-[3-(3-{1-[4-Amino-3-(difluoromethyl)-1H-pyrazolo[3,4-d]pyrimidin-1-yl]ethyl}-5-cyano-2-methoxy-6-methylphenyl)azetidin-1-yl]-N-methylpropanamide], the IC50 is below 0.01 µM.
The figure for `COc1c(C(C)n2nc(C(F)F)c3c(N)ncnc32)cc(C#N)c(C)c1C1CN(CC(F)(F)F)C1` (racemic) [Example 129, 5-{1-[4-Amino-3-(difluoromethyl)-1H-pyrazolo[3,4-d]pyrimidin-1-yl]ethyl}-4-methoxy-2-methyl-3-[1-(2,2,2-trifluoroethyl)azetidin-3-yl]benzonitrile] is below 0.01 µM; for `CCOc1c(C(C)n2nc(C)c3c(N)ncnc32)cc(Cl)c(C#N)c1-c1cncnc1` (racemic) [Example 329, 4-[1-(4-amino-3-methyl-1H-pyrazolo[3,4-d]pyrimidin-1-yl)ethyl]-6-chloro-3-ethoxy-2-pyrimidin-5-ylbenzonitrile] it is below 0.01 µM.
In the case of `COc1c(C(C)n2nc(C)c3c(N)ncnc32)cc(Cl)c(C#N)c1C1CNC1` (single isomer, unassigned) [Example 261, 4-[1-(4-Amino-3-methyl-1H-pyrazolo[3,4-d]pyrimidin-1-yl)ethyl]-2-azetidin-3-yl-6-chloro-3-methoxybenzonitrile] it was below 0.01 µM; in that of `COc1c(C(C)n2nc(C)c3c(N)ncnc32)cc(Cl)c(C)c1C1CN(C2CCOC2)C1` (stereo not shown) [Example 107, 1-(1-{5-Chloro-2-methoxy-4-methyl-3-[1-(tetrahydrofuran-3-yl)azetidin-3-yl]phenyl}ethyl)-3-methyl-1H-pyrazolo[3,4-d]pyrimidin-4-amine], below 0.01 µM.
In the case of `CCOc1c(C(C)n2nc(-c3ccc(C(=O)NC)nc3)c3c(N)ncnc32)cc(Cl)c(C)c1-c1ccc(C(=O)N(C)C)nc1` (racemic) [Example 59, 5-{3-[1-(4-amino-3-{6-[(methylamino)carbonyl]pyridin-3-yl}-1H-pyrazolo[3,4-d]pyrimidin-1-yl)ethyl]-5-chloro-2-ethoxy-6-methylphenyl}-N,N-dimethylpyridine-2-carboxamide tris(trifluoroacetate)] it was below 0.01 µM; in that of `COCCN1CC(c2c(C)c(Cl)cc(C(C)n3nc(C)c4c(N)ncnc43)c2OC)C1` (racemic) [Example 9, 1-(1-{5-Chloro-2-methoxy-3-[1-(2-methoxyethyl)azetidin-3-yl]-4-methylphenyl}ethyl)-3-methyl-1H-pyrazolo[3,4-d]pyrimidin-4-amine], below 0.01 µM; in that of `CCOc1c(C(C)n2cc(C)c3c(N)ncnc32)cc(Cl)c(C#N)c1C1CN(C(C)C)C1` (stereo not shown) [Example 307, 4-[1-(4-Amino-5-methyl-7H-pyrrolo[2,3-d]pyrimidin-7-yl)ethyl]-6-chloro-3-ethoxy-2-(1-isopropylazetidin-3-yl)benzonitrile], below 0.01 µM.
In the case of `COc1c(C(C)n2nc(C(F)F)c3c(N)ncnc32)cc(C#N)c(F)c1C1CN(C[C@H](C)O)C1` (stereo partly drawn) [Example 77, 5-(1-(4-Amino-3-(difluoromethyl)-1H-pyrazolo[3,4-d]pyrimidin-1-yl)ethyl)-2-fluoro-3-(1-((S)-2-hydroxypropyl)azetidin-3-yl)-4-methoxybenzonitrile], the IC50 was below 0.01 µM.
The figure for `CCC(C)N1CC(c2c(C)c(Cl)cc(C(C)n3nc(C)c4c(N)ncnc43)c2OC)C1` (stereo not shown) [Example 8, 1-{1-[3-(1-sec-butylazetidin-3-yl)-5-chloro-2-methoxy-4-methylphenyl]ethyl}-3-methyl-1H-pyrazolo[3,4-d]pyrimidin-4-amine] is below 0.01 µM; for `COc1c(C(C)n2nc(C(F)F)c3c(N)ncnc32)cc(C#N)c(C)c1C1CN(C[C@@H](C)O)C1` (stereo partly drawn) [Example 132, 5-{1-[4-Amino-3-(difluoromethyl)-1H-pyrazolo[3,4-d]pyrimidin-1-yl]ethyl}-3-{1-[(2R)-2-hydroxypropyl]azetidin-3-yl}-4-methoxy-2-methylbenzonitrile] it is below 0.01 µM; for `COc1c(C(C)n2nc(C)c3c(N)ncnc32)cc(Cl)c(C)c1C1CN(CC(C)C)C1` (racemic) [Example 7, 1-{1-[5-Chloro-3-(1-isobutylazetidin-3-yl)-2-methoxy-4-methylphenyl]ethyl}-3-methyl-1H-pyrazolo[3,4-d]pyrimidin-4-amine] it is below 0.01 µM.
In the case of `COc1c(C(C)n2nc(C)c3c(N)ncnc32)cc(Cl)c(C)c1C1CN([C@@H](C)C(=O)N(C)C)C1` (stereo partly drawn) [Example 160, (2S)-2-(3-{3-[1-(4-Amino-3-methyl-1H-pyrazolo[3,4-d]pyrimidin-1-yl)ethyl]-5-chloro-2-methoxy-6-methylphenyl}azetidin-1-yl)-N,N-dimethylpropanamide] it was below 0.01 µM.
In the case of `CCOc1c(C(C)n2nc(C)c3c(N)ncnc32)cc(Cl)c(C)c1-c1ccnc(C(=O)N(C)C)c1` (single isomer, unassigned) [Example 201], the IC50 was below 0.01 µM.
The figure for `COc1c(C(C)n2cc(-c3cn[nH]c3)c(=O)c3c(N)ncnc32)cc(Cl)c(C)c1-c1ccc(C(=O)N(C)C)nc1` (stereo not shown) [Example 359, 5-(3-{1-[4-Amino-5-oxo-6-(1H-pyrazol-4-yl)pyrido[2,3-d]pyrimidin-8(5H)-yl]ethyl}-5-chloro-2-methoxy-6-methylphenyl)-N,N-dimethylpyridine-2-carboxamide] is below 0.01 µM; for `COc1c(C(C)n2nc(C)c3c(N)ncnc32)cc(Cl)c(C)c1-c1cncc(C(=O)N(C)C)c1` (single isomer, unassigned) [Example 65, 5-{3-[1-(4-amino-3-methyl-1H-pyrazolo[3,4-d]pyrimidin-1-yl)ethyl]-5-chloro-2-methoxy-6-methylphenyl}-N,N-dimethylnicotinamide] it is below 0.01 µM; for `CCOc1c(C(C)n2nc(C)c3c(N)ncnc32)cc(Cl)c(F)c1C1CN(C[C@H](C)O)C1` (stereo partly drawn) [Example 143, (2S)-1-(3-{3-[1-(4-Amino-3-methyl-1H-pyrazolo[3,4-d]pyrimidin-1-yl)ethyl]-5-chloro-2-ethoxy-6-fluorophenyl}azetidin-1-yl)propan-2-ol] it is below 0.01 µM.
The figure for `COc1c(C(C)n2nc(C)c3c(N)ncnc32)cc(Cl)c(C)c1C1CN([C@H](C)CO)C1` (stereo partly drawn) [Example 156, (2R)-2-(3-{3-[1-(4-Amino-3-methyl-1H-pyrazolo[3,4-d]pyrimidin-1-yl)ethyl]-5-chloro-2-methoxy-6-methylphenyl}azetidin-1-yl)propan-1-ol] is below 0.01 µM; for `COc1c(C(C)n2nc(C(F)F)c3c(N)ncnc32)cc(Cl)c(F)c1C1CN(C[C@H](C)O)C1` (stereo partly drawn) [Example 76, (2S)-1-[3-(3-{1-[4-amino-3-(difluoromethyl)-1H-pyrazolo[3,4-d]pyrimidin-1-yl]ethyl}-5-chloro-6-fluoro-2-methoxyphenyl)azetidin-1-yl]propan-2-ol] it is below 0.01 µM.
For the compound `COc1c(C(C)n2nc(C)c3c(N)ncnc32)cc(Cl)c(C)c1C1CN([C@H](C)C(=O)N(C)C)C1` (stereo partly drawn) [Example 159, (2R)-2-(3-{3-[1-(4-Amino-3-methyl-1H-pyrazolo[3,4-d]pyrimidin-1-yl)ethyl]-5-chloro-2-methoxy-6-methylphenyl}azetidin-1-yl)-N,N-dimethylpropanamide], the IC50 is below 0.01 µM.
In the case of `COc1c(C(C)n2nc(C)c3c(N)ncnc32)cc(Cl)c(C#N)c1C1CN(C2CCOC2)C1` (single isomer, unassigned) [Example 276, 4-[1-(4-Amino-3-methyl-1H-pyrazolo[3,4-d]pyrimidin-1-yl)ethyl]-6-chloro-3-methoxy-2-[1-(tetrahydrofuran-3-yl)azetidin-3-yl]benzonitrile] it was below 0.01 µM; in that of `CCOc1c(C(C)n2nc(C)c3c(N)ncnc32)cc(Cl)c(C#N)c1C1CN(C(C)(C)CO)C1` (single isomer, unassigned) [Example 237, 4-[1-(4-Amino-3-methyl-1H-pyrazolo[3,4-d]pyrimidin-1-yl)ethyl]-6-chloro-3-ethoxy-2-[1-(2-hydroxy-1,1-dimethylethyl)azetidin-3-yl]benzonitrile], below 0.01 µM.
The figure for `COc1c(C(C)n2nc(C)c3c(N)ncnc32)cc(Cl)c(Cl)c1C1CN(C[C@@H](C)O)C1` (stereo partly drawn) [Example 302, (2R)-1-(3-{3-[1-(4-Amino-3-methyl-1H-pyrazolo[3,4-d]pyrimidin-1-yl)ethyl]-5,6-dichloro-2-methoxyphenyl}azetidin-1-yl)propan-2-ol] is below 0.01 µM.
For `CCNC(=O)c1c(C)c(Cl)cc(C(C)n2nc(-c3ccc4nc(N)sc4c3)c3c(N)ncnc32)c1OCC` (racemic) [Example 90, 3-{1-[4-Amino-3-(2-amino-1,3-benzothiazol-6-yl)-1H-pyrazolo[3,4-d]pyrimidin-1-yl]ethyl}-5-chloro-2-ethoxy-N-ethyl-6-methylbenzamide], the IC50 was below 0.01 µM.
In the case of `CCOc1c(C(C)n2nc(C)c3c(N)ncnc32)cc(Cl)c(C#N)c1-c1ccc(C(=O)N(C)C)nc1` (racemic) [Example 44, 5-(3-(1-(4-amino-3-methyl-1H-pyrazolo[3,4-d]pyrimidin-1-yl)ethyl)-5-chloro-6-cyano-2-ethoxyphenyl)-N,N-dimethylpicolinamide] it was below 0.01 µM.
